Data published in patent publication US10577363B2, “Substituted piperidine compounds” (EPIZYME, INC., priority 2014, dated 2020).

Experiments:
[1] = target: T1, SMYD3 (Homo sapiens (Human), UniProt Q9H7B4); test: SMYD3 cell assay (Trimethyl-MEKK2 In-Cell Western in 293T/17 cells); format: cell-based; conditions: read-out: SMYD3 Cell IC50*
In short: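 In-Cell Western ratio of trimethyl-Lys260 MEKK2 to anti-flag signal; percent inhibition from DMSO and maximum-inhibition controls, IC50 by non-linear regression, triplicates.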

[2] = target: T1, SMYD3; test: SMYD3 biochemical assay (SPA, 3H-SAM methylation of MEKK2 protein substrate); conditions: read-out: SMYD3 Biochem IC50*
In short: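 Native full-length human SMYD3 (E. coli-expressed, tags removed) was preincubated with compound for 30 min at room temperature in 25 mM Tris-Cl pH 8.0, 1 mM TCEP, 0.005% BSG, 0.005% Tween 20. Reaction was started with 3H-SAM plus GST-MEKK2, quenched with 100 uM unlabeled SAM, and read by SPA scintillation counting.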

T1 sequence (Q9H7B4 whole entry): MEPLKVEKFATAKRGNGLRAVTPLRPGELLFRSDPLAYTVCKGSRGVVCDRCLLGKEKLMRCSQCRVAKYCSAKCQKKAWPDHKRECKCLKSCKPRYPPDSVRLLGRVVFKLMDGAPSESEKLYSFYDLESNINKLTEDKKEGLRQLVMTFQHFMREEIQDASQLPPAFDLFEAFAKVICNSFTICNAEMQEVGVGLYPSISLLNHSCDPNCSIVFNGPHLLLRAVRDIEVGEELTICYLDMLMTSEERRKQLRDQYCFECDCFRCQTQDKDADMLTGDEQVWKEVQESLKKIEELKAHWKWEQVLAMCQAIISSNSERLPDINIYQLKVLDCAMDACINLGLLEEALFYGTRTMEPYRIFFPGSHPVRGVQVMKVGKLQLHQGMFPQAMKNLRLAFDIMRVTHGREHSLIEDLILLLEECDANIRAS

Compound	IC50 [1] [nM]	IC50 [2] [nM]
O=C(N[C@H]1C[C@H]2CC[C@@H](C1)N2S(=O)(=O)N1CC2CCC(C1)N2Cc1ccccc1)c1cc(C2CC2)on1 [compound 904, N-((1R,3r,5S)-8-((8-benzyl-3,8-diazabicyclo[3.2.1]octan-3-yl)sulfonyl)-8-azabicyclo[3.2.1]octan-3-yl)-5-cyclopropylisoxazole-3-carboxamide]	395	16.9
C[C@H](NC1CCN(S(=O)(=O)N2CC[C@H](NC(=O)c3cc(C4CC4)on3)C[C@@H]2C)CC1)c1ccccc1 [compound 905, 5-cyclopropyl-N-((2S,4S)-2-methyl-1-((4-(((S)-1-phenylethyl)amino)piperidin-1-yl)sulfonyl)piperidin-4-yl)isoxazole-3-carboxamide]	331	17.1
O=C(N[C@H]1C[C@H]2CC[C@@H](C1)N2S(=O)(=O)N1CCC(N2CCCC2)CC1)c1cc(C2CC2)on1 [compound 906, 5-cyclopropyl-N-((1R,3r,5S)-8-((4-(pyrrolidin-1-yl)piperidin-1-yl)sulfonyl)-8-azabicyclo[3.2.1]octan-3-yl)isoxazole-3-carboxamide]	229	17.1
CC1CN(S(=O)(=O)N2[C@@H]3CC[C@H]2C[C@@H](NC(=O)c2cc(C4CC4)on2)C3)C(C)CN1 (stereo partly drawn) [compound 907, 5-cyclopropyl-N-((1R,3r,5S)-8-((2,5-dimethylpiperazin-1-yl)sulfonyl)-8-azabicyclo[3.2.1]octan-3-yl)isoxazole-3-carboxamide]	238	17.7
C[C@H]1C[C@@H](NC(=O)c2cc(C3CC3)on2)CCN1S(=O)(=O)N1CCC(NCCN2CCOCC2)CC1 [compound 908, 5-cyclopropyl-N-((2S,4S)-2-methyl-1-((4-((2-morpholinoethyl)amino)piperidin-1-yl)sulfonyl)piperidin-4-yl)isoxazole-3-carboxamide]	253	18.4
C[C@H]1C[C@@H](NC(=O)c2cc(C3CC3)on2)CCN1S(=O)(=O)[C@@H]1CCCNC1 [compound 910, 5-cyclopropyl-N-((2S,4S)-2-methyl-1-(((R)-piperidin-3-yl)sulfonyl)piperidin-4-yl)isoxazole-3-carboxamide]	186	19
CC(C)c1cc(C(=O)N[C@H]2C[C@H]3CC[C@@H](C2)N3S(=O)(=O)N2CCC(N)CC2)no1 [compound 911, N-((1R,3r,5S)-8-((4-aminopiperidin-1-yl)sulfonyl)-8-azabicyclo[3.2.1]octan-3-yl)-5-isopropylisoxazole-3-carboxamide]	144	20.5
O=C(N[C@H]1C[C@H]2CC[C@@H](C1)N2S(=O)(=O)N1CCC(NCCCN2CCOCC2)CC1)c1cc(C2CC2)on1 [compound 912, 5-cyclopropyl-N-((1R,3r,5S)-8-((4-((3-morpholinopropyl)amino)piperidin-1-yl)sulfonyl)-8-azabicyclo[3.2.1]octan-3-yl)isoxazole-3-carboxamide]	316	20.9
C[C@H]1C[C@@H](NC(=O)c2cc(C3CC3)on2)CCN1S(=O)(=O)[C@H]1CCCNC1 [compound 913, 5-cyclopropyl-N-((2S,4S)-2-methyl-1-(((S)-piperidin-3-yl)sulfonyl)piperidin-4-yl)isoxazole-3-carboxamide]	255	21.6
O=C(N[C@H]1C[C@H]2CC[C@@H](C1)N2S(=O)(=O)N1CC2CCC(C1)N2CCCC(F)(F)F)c1cc(C2CC2)on1 [compound 914, 5-cyclopropyl-N-((1R,3r,5S)-8-((8-(4,4,4-trifluorobutyl)-3,8-diazabicyclo[3.2.1]octan-3-yl)sulfonyl)-8-azabicyclo[3.2.1]octan-3-yl)isoxazole-3-carboxamide]	299	22.9
C[C@H]1CN(S(=O)(=O)N2[C@@H]3CC[C@H]2C[C@@H](NC(=O)c2cc(C4CC4)on2)C3)[C@@H](C)CN1 [compound 915, 5-cyclopropyl-N-((1R,3S,5S)-8-(((2S,5S)-2,5-dimethylpiperazin-1-yl)sulfonyl)-8-azabicyclo[3.2.1]octan-3-yl)isoxazole-3-carboxamide]	231	23.2
COCCN(C)C1CCN(S(=O)(=O)N2[C@@H]3CC[C@H]2C[C@@H](NC(=O)c2cc(C4CC4)on2)C3)CC1 [compound 916, 5-cyclopropyl-N-((1R,3r,5S)-8-((4-((2-methoxyethyl)(methyl)amino)piperidin-1-yl)sulfonyl)-8-azabicyclo[3.2.1]octan-3-yl)isoxazole-3-carboxamide]	247	23.3
CN(CCN1CCCC1)C1CCN(S(=O)(=O)N2[C@@H]3CC[C@H]2C[C@@H](NC(=O)c2cc(C4CC4)on2)C3)CC1 [compound 917, 5-cyclopropyl-N-((1R,3r,5S)-8-((4-(methyl(2-(pyrrolidin-1-yl)ethyl)amino)piperidin-1-yl)sulfonyl)-8-azabicyclo[3.2.1]octan-3-yl)isoxazole-3-carboxamide]	379	24.9
O=C(N[C@H]1C[C@H]2CC[C@@H](C1)N2S(=O)(=O)N1CCC(NCCC(F)(F)F)CC1)c1cc(C2CC2)on1 [compound 918, 5-cyclopropyl-N-((1R,3r,5S)-8-((4-((3,3,3-trifluoropropyl)amino)piperidin-1-yl)sulfonyl)-8-azabicyclo[3.2.1]octan-3-yl)isoxazole-3-carboxamide]	148	25
O=C(N[C@H]1C[C@H]2CC[C@@H](C1)N2S(=O)(=O)C[C@@H]1CCCCN1)c1cc(C2CC2)on1 [compound 919, 5-cyclopropyl-N-((1R,3S,5S)-8-((((S)-piperidin-2-yl)methyl)sulfonyl)-8-azabicyclo[3.2.1]octan-3-yl)isoxazole-3-carboxamide]	243	25.4
O=C(N[C@H]1C[C@H]2CC[C@@H](C1)N2S(=O)(=O)[C@H]1CC[C@@H](NCCN2CCOCC2)CC1)c1cc(C2CC2)on1 [compound 920, 5-cyclopropyl-N-((1R,3R,5S)-8-(((1s,4S)-4-((2-morpholinoethyl)amino)cyclohexyl)sulfonyl)-8-azabicyclo[3.2.1]octan-3-yl)isoxazole-3-carboxamide]	499	26.6
CN(CCO)C1CCN(CCS(=O)(=O)N2[C@@H]3CC[C@H]2C[C@@H](NC(=O)c2cc(C4CC4)on2)C3)C1 (stereo partly drawn) [compound 921, 5-cyclopropyl-N-((1R,3r,5S)-8-((2-(3-((2-hydroxyethyl)(methyl)amino)pyrrolidin-1-yl)ethyl)sulfonyl)-8-azabicyclo[3.2.1]octan-3-yl)isoxazole-3-carboxamide]	373	27.7
O=C(N[C@H]1C[C@H]2CC[C@@H](C1)N2S(=O)(=O)N1CCC(NCCN2CCCC2)CC1)c1cc(C2CC2)on1 [compound 922, 5-cyclopropyl-N-((1R,3r,5S)-8-((4-((2-(pyrrolidin-1-yl)ethyl)amino)piperidin-1-yl)sulfonyl)-8-azabicyclo[3.2.1]octan-3-yl)isoxazole-3-carboxamide]	282	28.1
C[C@@H](NC1CCN(S(=O)(=O)N2[C@@H]3CC[C@H]2C[C@@H](NC(=O)c2cc(C4CC4)on2)C3)CC1)c1ccccc1 [compound 923, 5-cyclopropyl-N-((1R,3R,5S)-8-((4-(((R)-1-phenylethyl)amino)piperidin-1-yl)sulfonyl)-8-azabicyclo[3.2.1]octan-3-yl)isoxazole-3-carboxamide]	310	28.6
O=C(N[C@H]1C[C@H]2CC[C@@H](C1)N2S(=O)(=O)N1CCC(NCc2c(F)cccc2F)CC1)c1cc(C2CC2)on1 [compound 924, 5-cyclopropyl-N-((1R,3r,5S)-8-((4-((2,6-difluorobenzyl)amino)piperidin-1-yl)sulfonyl)-8-azabicyclo[3.2.1]octan-3-yl)isoxazole-3-carboxamide]	670	28.9
CC(C)C1CN(S(=O)(=O)N2[C@@H]3CC[C@H]2C[C@@H](NC(=O)c2cc(C4CC4)on2)C3)CCN1 (stereo partly drawn) [compound 925, 5-cyclopropyl-N-((1R,3r,5S)-8-((3-isopropylpiperazin-1-yl)sulfonyl)-8-azabicyclo[3.2.1]octan-3-yl)isoxazole-3-carboxamide]	340	29.9
CN1CCC[C@@H](S(=O)(=O)N2[C@@H]3CC[C@H]2C[C@@H](NC(=O)c2cc(C4CC4)on2)C3)C1 [compound 926, 5-cyclopropyl-N-((1R,3R,5S)-8-(((R)-1-methylpiperidin-3-yl)sulfonyl)-8-azabicyclo[3.2.1]octan-3-yl)isoxazole-3-carboxamide]	209	30
C[C@H](NC1CCN(S(=O)(=O)N2[C@@H]3CC[C@H]2C[C@@H](NC(=O)c2cc(C4CC4)on2)C3)CC1)c1ccccc1 [compound 927, 5-cyclopropyl-N-((1R,3S,5S)-8-((4-(((S)-1-phenylethyl)amino)piperidin-1-yl)sulfonyl)-8-azabicyclo[3.2.1]octan-3-yl)isoxazole-3-carboxamide]	403	30.9
CC(C)NC1CCN(S(=O)(=O)N2[C@@H]3CC[C@H]2C[C@@H](NC(=O)c2cc(C4CC4)on2)C3)CC1 [compound 928, 5-cyclopropyl-N-((1R,3r,5S)-8-((4-(isopropylamino)piperidin-1-yl)sulfonyl)-8-azabicyclo[3.2.1]octan-3-yl)isoxazole-3-carboxamide]	512	36.2
NCc1ccc(S(=O)(=O)N2[C@@H]3CC[C@H]2C[C@@H](NC(=O)c2cc(C4CC4)on2)C3)cc1 [compound 929, N-((1R,3r,5S)-8-((4-(aminomethyl)phenyl)sulfonyl)-8-azabicyclo[3.2.1]octan-3-yl)-5-cyclopropylisoxazole-3-carboxamide]	≥ 10000	36.8
